The values that follow come from patent US12527788B2, “Defining RNA-small molecule affinity landscapes enables design of a small molecule inhibitor of an oncogenic non-coding RNA” (University of Florida Research Foundation, Incorporated, priority 2017, dated 2026).

Assay [1] addresses selected RNA motifs. Briefly: In solution fluorescence-based binding affinity measurement. To be noted: read-out: Average Kd of Selected RNA Binders. The method, then: Bound RNA motifs for each compound were harvested from the array surface, amplified, and identified by using high throughput sequencing (RNA-seq). Highly abundant RNAs in the sequencing data were then subjected to binding measurements. Typically, those RNAs that were highly enriched bound to the small molecules with affinities (Kds) that ranged from 1 to 10 μM (FIG. 2 and Table 1) while binding to the starting libraries was not saturable. These affinities are promising for binding RNA, as it has been difficult to acquire low micromolar affinity with compounds of this low molecular weight. In fact, RNAs that have undergone Darwinian evolution to bind small molecules, namely riboswitches, often bind their cognate ligand at […] concentrations;^30-33 bioactive compounds that mimic riboswitch ligands bind with similar affinities.^30,34
(§1) Binding Affinity Measurements: An in solution, fluorescence-based assay was used to determine binding affinities by monitoring the change in fluorescence intensity of 1-FL (or 2-FL/3-FL/4-FL) as a function of RNA concentration as described previously.^18 Briefly, the RNA of interest was folded in 1× Folding Buffer (8 mM Na2HPO4, pH 7.0, 185 mM NaCl and 1 mM EDTA) by heating at 60° C. for 5 min followed by slowly cooling to room temperature on the bench top. Then, the FL-conjugated compound was added into the RNA solution to a final concentration of 100 nM. Serial dilutions were then completed using 1× Folding Buffer supplemented with 100 nM FL-conjugated compound. The solutions were incubated at room temperature for 30 min and then transferred to a well of a black 384-well plate. Fluorescence intensity was measured using a Bio-Tek FL×800 plate reader with an excitation wavelength of 485/20 nm and an emission wavelength of 528/20 nm. The change in fluorescence intensity as a function of the concentration of RNA was fit to equation 3:^9 I=I0+0.5 Δε{([FL]0+[RNA]0 +Kd)−(([FL]0+[RNA]0+Kd)^2−4[FL]0[RNA]0)^1/2} (3) where I is the observed fluorescence intensity; I0 is the fluorescence intensity in the absence of RNA; Δε is the difference between the fluorescence intensity in the absence of RNA and in the presence of infinite RNA concentration; [FL]0 is the concentration of compound; [RNA]0 is the concentration of the selected RNA; and Kd is the dissociation constant.

Assay [2] addresses AT-rich DNA hairpin. The description is as above.
Description: It has been difficult to identify compounds that are heterocyclic in nature that selectively recognize RNA over DNA.^5 Thus, to further gain insight into the selectivity of our RNA motif-small molecule interactions, we compared the measured affinities for selected RNA motifs to the affinities of the ligands for an AT-rich DNA hairpin, a common target of small molecules similar to those shown in FIG. 1. […] This alteration reduces DNA affinity because key stacking and hydrogen bonding interactions are not possible. […] Thus, the interactions selected via 2DCS are RNA-selective.
as §1

By Kd is commonly meant the equilibrium constant for the complex coming apart. Take `CN1CCN(c2ccc(-c3ccc4nc(-c5ccc(OCCCC(=O)NCCCN=[N+]=[N-])cc5)[nH]c4c3)cc2)CC1` [Compound 1]: the Kd in assay [1] is 16 ± 9 µM; in assay [2], > 100 µM.
The matching figures for `Cc1cc(-c2nc3ccc(-c4ccc(N5CCN(C)CC5)cc4)cc3[nH]2)cc(C)c1OCCCC(=O)NCCCN=[N+]=[N-]` [Compound 2]: 7 ± 5 µM and > 100 µM.
On to `CC(C)c1cc(-c2nc3ccc(-c4ccc(N5CCN(C)CC5)cc4)cc3[nH]2)cc(C(C)C)c1OCCCC(=O)NCCCN=[N+]=[N-]` [Compound 3], for which the Kd in assay [1] is 8 ± 4 µM; in assay [2], > 100 µM.
